Where only a bound is given, the exact number is not on record here.

The target of this experiment is T1, Glucocorticoid Receptor (GR) (Homo sapiens, UniProt P04150).
T1 construct: purchased Invitrogen P2893
T1 sequence (P04150 1-777): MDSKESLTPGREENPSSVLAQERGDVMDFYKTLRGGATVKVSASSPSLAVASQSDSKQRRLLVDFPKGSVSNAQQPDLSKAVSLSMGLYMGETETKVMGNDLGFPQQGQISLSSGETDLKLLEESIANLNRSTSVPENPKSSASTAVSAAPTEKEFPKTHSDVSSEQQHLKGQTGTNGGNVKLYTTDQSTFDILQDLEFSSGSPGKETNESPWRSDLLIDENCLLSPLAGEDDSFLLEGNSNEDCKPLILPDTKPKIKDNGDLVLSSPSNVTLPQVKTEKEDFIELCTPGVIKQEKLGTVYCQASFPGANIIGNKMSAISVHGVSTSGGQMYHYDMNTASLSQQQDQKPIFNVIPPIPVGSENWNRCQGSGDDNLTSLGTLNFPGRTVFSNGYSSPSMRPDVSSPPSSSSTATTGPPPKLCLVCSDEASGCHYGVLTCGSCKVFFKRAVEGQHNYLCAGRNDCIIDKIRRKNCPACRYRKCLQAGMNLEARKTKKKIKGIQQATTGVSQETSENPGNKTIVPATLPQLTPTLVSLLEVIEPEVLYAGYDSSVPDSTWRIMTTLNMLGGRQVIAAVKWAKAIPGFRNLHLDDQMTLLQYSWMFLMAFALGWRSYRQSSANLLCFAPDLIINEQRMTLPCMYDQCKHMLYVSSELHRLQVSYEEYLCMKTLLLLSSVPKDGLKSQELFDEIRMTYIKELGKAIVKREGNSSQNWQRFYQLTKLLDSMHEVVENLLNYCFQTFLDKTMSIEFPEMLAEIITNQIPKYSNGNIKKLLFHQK
Briefly: GR Florescence Polarization Assay (PolarScreen Glucocorticoid Receptor Competitor Assay, Red). To be noted: Fluorescense polarization binding ranges; competition with fluorescent glucocorticoid, incubated overnight at 4° C. The essentials:
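Competitive fluorescence polarization using fluorescent glucocorticoid tracer and human GR in kit buffer. Compounds serially diluted 1:4 in DMSO, incubated with tracer and GR overnight at 4 °C before polarization read.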
As usually defined, the IC50 is the concentration needed to halve the response being measured. Low readings indicate inhibition by little substance, high ones a need for much substance. Regarding `Cc1ncccc1NC(=O)c1ccc2c(c1)CCC[C@@H]1C[C@@](C)(O)CC[C@@]21Cc1ccccc1.Cc1ncccc1NC(=O)c1ccc2c(c1)CCC[C@H]1C[C@](C)(O)CC[C@]21Cc1ccccc1` [Example 10, (7aR,9S,11aS)-11a-benzyl-9-hydroxy-9-methyl-6,7,7a,8,9,10,11,11a-octahydro-5H-dibenzo[a,c]cycloheptene-3-carboxylic acid (2-methyl-pyridin-3-yl)-amide; compound with (7aS,9R,11aR)-11a-benzyl-9-hydroxy-9-methyl-6,7,7a,8,9,10,11,11a-octahydro-5H-dibenzo[a,c]cycloheptene-3-carboxylic acid (2-methyl-pyridin-3-yl)-amide], the IC50 is less than 100 nM.
In turn, `Cc1ncccc1NC(=O)c1ccc2c(c1)CCCC1CC(O)(COC(C)C(F)(F)F)CCC21Cc1ccccc1` (mixture of isomers) [Example 100] gave an IC50 of less than 100 nM.
`CC[C@@]1(O)CC[C@]2(Cc3ccccc3)c3ccc(C(=O)Nc4cccnc4C)cc3CCC[C@@H]2C1.CC[C@]1(O)CC[C@@]2(Cc3ccccc3)c3ccc(C(=O)Nc4cccnc4C)cc3CCC[C@H]2C1` [Example 13, (7aS,9S,11aS)-11a-benzyl-9-ethyl-9-hydroxy-6,7,7a,8,9,10,11,11a-octahydro-5H-dibenzo[a,c]cycloheptene-3-carboxylic acid (2-methyl-pyridin-3-yl)-amide; compound with (7aR,9R,11aR)-11a-benzyl-9-ethyl-9-hydroxy-6,7,7a,8,9,10,11,11a-octahydro-5H-dibenzo[a,c]cycloheptene-3-carboxylic acid (2-methyl-pyridin-3-yl)-amide] gave an IC50 of 100 to 1000 nM.
For `CC[C@@]1(O)CC[C@@]2(Cc3ccccc3)c3ccc(C(=O)Nc4cccnc4C)cc3C(=O)N(C)C[C@@H]2C1` [Example 113, (3R,4aR,11bS)-11b-Benzyl-3-ethyl-3-hydroxy-6-methyl-N-(2-methylpyridin-3-yl)-7-oxo-2,3,4,4a,5,6,7,11b-octahydro-1H-dibenzo[c,e]azepine-9-carboxamide], the IC50 fell in the range of 1000 to 10000 nM.
In the case of `Cc1ncccc1NC(=O)c1ccc2c(c1)CCC[C@@H]1C[C@](C)(O)CC[C@@]21Cc1ccccc1` (single isomer, unassigned) [Example 90], the IC50 was less than 100 nM.
Under `CCC[C@@]1(O)CC[C@@]2(CC)c3ccc(C(=O)Nc4cccnc4C)cc3COC[C@H]2C1` (racemic) [Example 136, (7aS,9R,11aR)-11a-Ethyl-9-propyl-9-hydroxy-N-(2-methylpyridin-3-yl)-5,7,7a,8,9,10,11,11a-octahydrodibenzo[c,e]oxepine-3-carboxamide; compound with (7aR,9S,11aS)-11a-ethyl-9-propyl-9-hydroxy-N-(2-methylpyridin-3-yl)-5,7,7a,8,9,10,11,11a-octahydrodibenzo[c,e]oxepine-3-carboxamide] stands less than 100 nM; under `CC[C@@]1(O)CC[C@@]2(Cc3ccccc3)c3ccc(C(=O)Nc4ccc(N)cc4)cc3CCC[C@H]2C1` [Example 143, (7aS,9R,11aS)-11a-Benzyl-9-ethyl-9-hydroxy-6,7,7a,8,9,10,11,11a-octahydro-5H-dibenzo[a,c]cycloheptene-3-carboxylic acid (4-amino-phenyl)-amide], less than 100 nM.
With `CC[C@@]1(O)CC[C@@]2(Cc3ccccc3)c3ccc(C(=O)Nc4cccnc4C)cc3CC(=O)C[C@H]2C1` [Example 114, (7aR,9R,11aS)-11a-Benzyl-9-ethyl-9-hydroxy-6-oxo-6,7,7a,8,9,10,11,11a-octahydro-5H-dibenzo[a,c]cycloheptene-3-carboxylic acid (2-methyl-pyridin-3-yl)-amide], the IC50 was less than 100 nM.
In turn, `CC[C@@]1(O)CC[C@@]2(Cc3ccccc3)c3ccc(C(=O)NC4=NC(=O)CN4C)cc3CCC[C@H]2C1` [Example 85] yielded an IC50 of less than 100 nM.
Under `Cc1ncccc1NC(=O)c1ccc2c(c1)NC(=O)C[C@H]1CC(O)(C(F)(F)F)CC[C@@]21Cc1ccccc1` (stereo partly drawn) [Example 21, (7aR,11aS)-11a-Benzyl-9-hydroxy-N-(2-methylpyridin-3-yl)-6-oxo-9-(trifluoromethyl)-6,7,7a,8,9,10,11,11a-octahydro-5H-dibenzo[b,d]azepine-3-carboxamide] stands more than 10000 nM; under `CCOC[C@@]1(O)CC[C@@]2(Cc3ccccc3)c3ccc(C(=O)Nc4cccnc4C)cc3CCC[C@H]2C1` [Example 93], less than 100 nM; under `Cc1ncccc1NC(=O)c1ccc2c(c1)CCC[C@H]1C[C@@](O)(CC#N)CC[C@@]21Cc1ccccc1` [Example 66], less than 100 nM.
`CC[C@@]1(O)CC[C@@]2(Cc3ccccc3)c3ccc(C(=O)Nc4cccnc4C)cc3CCC[C@H]2C1.CC[C@]1(O)CC[C@]2(Cc3ccccc3)c3ccc(C(=O)Nc4cccnc4C)cc3CCC[C@@H]2C1` [Example 12, (7aS,9R,11aS)-11a-Benzyl-9-ethyl-9-hydroxy-6,7,7a,8,9,10,11,11a-octahydro-5H-dibenzo[a,c]cycloheptene-3-carboxylic acid (2-methyl-pyridin-3-yl)-amide; compound with (7aR,9S,11aR)-11a-benzyl-9-ethyl-9-hydroxy-6,7,7a,8,9,10,11,11a-octahydro-5H-dibenzo[a,c]cycloheptene-3-carboxylic acid (2-methyl-pyridin-3-yl)-amide] registered an IC50 of less than 100 nM.
Compound `CCC[C@@]1(O)CC[C@@]2(CC)c3ccc(C(=O)Nc4ccccc4N)cc3CCC[C@H]2C1` (racemic) [Example 145, (7aS,9R,11aR)-11a-Ethyl-9-hydroxy-9-propyl-6,7,7a,8,9,10,11,11a-octahydro-5H-dibenzo[a,c]cycloheptene-3-carboxylic acid (2-amino-phenyl)-amide; compound with (7aR,9S,11aS)-11a-ethyl-9-hydroxy-9-propyl-6,7,7a,8,9,10,11,11a-octahydro-5H-dibenzo[a,c]cycloheptene-3-carboxylic acid (2-amino-phenyl)-amide] showed an IC50 of less than 100 nM.
With `COC[C@@]1(O)CC[C@@]2(Cc3ccccc3)c3ccc(C(=O)Nc4cccnc4C)cc3CCC[C@H]2C1` (racemic) [Example 18, (7aS,9R,11aS)-11a-Benzyl-9-hydroxy-9-methoxymethyl-6,7,7a,8,9,10,11,11a-octahydro-5H-dibenzo[a,c]cycloheptene-3-carboxylic acid (2-methyl-pyridin-3-yl)-amide; compound with (7aR,9S,11aR)-11a-benzyl-9-hydroxy-9-methoxymethyl-6,7,7a,8,9,10,11,11a-octahydro-5H-dibenzo[a,c]cycloheptene-3-carboxylic acid (2-methyl-pyridin-3-yl)-amide], the IC50 is less than 100 nM.
Compound “(3R,4aR,11bR)-11b-benzyl-3-methyl-2,3,4,4a,5,6,7,11b-octahydro-1H-dibenzo[a,c]cycloheptene-3,9-diol; compound with (3S,4aS,11bS)-11b-benzyl-3-methyl-2,3,4,4a,5,6,7,11b-octahydro-1H-dibenzo[a,c]cycloheptene-3,9-diol [Example 7]” gave an IC50 of less than 100 nM.
The compound `CC[C@@]1(O)CC[C@@]2(Cc3ccccc3)c3ccc(C(=O)NCc4cccnc4C)cc3CCC[C@H]2C1` [Example 83, (7aS,9R,11aS)-11a-Benzyl-9-ethyl-9-hydroxy-6,7,7a,8,9,10,11,11a-octahydro-5H-dibenzo[a,c]cycloheptene-3-carboxylic acid (2-methyl-pyridin-3-ylmethyl)-amide] displayed an IC50 of less than 100 nM.
Under `C#C[C@]1(O)CC[C@@]2(Cc3ccccc3)c3ccc(C(=O)Nc4cccnc4C)cc3CCC[C@H]2C1` (racemic) [Example 32, (7aS,9S,11aS)-11a-Benzyl-9-ethynyl-9-hydroxy-6,7,7a,8,9,10,11,11a-octahydro-5H-dibenzo[a,c]cycloheptene-3-carboxylic acid (2-methyl-pyridin-3-yl)-amide; compound with (7aR,9R,11aR)-11a-benzyl-9-ethynyl-9-hydroxy-6,7,7a,8,9,10,11,11a-octahydro-5H-dibenzo[a,c]cyclo heptene-3-carboxylic acid (2-methyl-pyridin-3-yl)-amide] stands less than 100 nM; under `CC[C@@]12CC[C@](O)(CC#N)C[C@@H]1CCCc1cc(C(=O)Nc3cccnc3C)ccc12` (racemic) [Example 64, (7aS,9R,11aR)-9-Cyanomethyl-11a-ethyl-9-hydroxy-6,7,7a,8,9,10,11,11a-octahydro-5H-dibenzo[a,c]cycloheptene-3-carboxylic acid (2-methyl-pyridin-3-yl)-amide; compound with (7aR,9S,11aS)-9-cyanomethyl-11a-ethyl-9-hydroxy-6,7,7a,8,9,10,11,11a-octahydro-5H-dibenzo[a,c]cyclo heptene-3-carboxylic acid (2-methyl-pyridin-3-yl)-amide], 100 to 1000 nM.

The record behind these values is patent publication US20120238549A1, “Nuclear Hormone Receptor Modulators” (ABBOTT LABORATORIES, priority 2011, published 2012).
